# Key:
# [1] = test system: atrial refractory period during rapid atrial pacing; conditions: in vivo; cited from earlier work
# [2] = test system: patients with left ventricular dysfunction; assay: Retrospective analysis of Montreal Heart Institute patients randomized in SOLVD: development of atrial fibrillation, enalapril versus placebo; format: in vivo, human
# From the text: The patients of the Montreal Heart Institute who were enrolled in the SOLVD trials constituted the study population. SOLVD was a multicenter, double-blinded, randomized, placebo-controlled trial which evaluated the effect of the ACEi enalapril on survival in patients with left ventricular (LV) dysfunction (ejection fraction≦35%).^12,13 The design of the study has been reported previously.^13 Briefly, from June 1986 to August 1991, 4228 patients with asymptomatic or mildly symptomatic (not requiring treatment with digitalis, diuretics or vasodilators for heart failure at study entry) LV dysfunction (LVEF≦0.35) were included in the prevention trial and 2569 patients with overt congestive HF in the treatment trial.^14 Patients were randomized to enalapril (5-20 mg/day) or placebo. Exclusion criteria included: age>80 years, unstable angina, myocardial infarction in the previous month, severe pulmonary disease, renal insufficiency (creatinine level>[…]), current ACEi use or intolerance to ACEi. Follow-up visits were scheduled 2 and 6 weeks after randomization and every 4 months until the end of the study, for a mean follow-up of 3.4 and 3.1 years for the treatment and prevention trials, respectively.
# Baseline characteristics, past medical history and drug therapy at the time of enrolment were obtained from the SOLVD databases. Serial electrocardiograms (ECG) were not collected specifically for the SOLVD trials. However, the routine clinical follow-up of patients at our institution usually included a 12-lead ECG. Thus, the medical file of each patient was carefully reviewed and a single experienced cardiologist, blinded to treatment allocation, interpreted every ECG.
# AF was defined as rapid oscillations or fibrillatory waves that vary in size, shape and timing, associated with an irregular, frequently rapid ventricular response. For the purposes of the study, paroxysmal AF was defined as episodes in which the patient reverted to sinus rhythm spontaneously, with medical therapy orwith a single cardioversion, whereas patients who remained in AF despite changes in medical therapy and/or cardioversion were defined as persistent AF. Episodes occurring during a 24-hour Holter monitoring were also considered. The end-points were the development and time to first occurrence of AF on either one 12-lead ECG and/or a 24-hour Holter monitoring recorded during any available follow-up visits (including research, outpatient clinic or emergency room visits). Participants with significant supraventricular arrhythmia on the baseline ECG (AF or flutter) were excluded. Patients with a history of arrhythmia (either supraventricular or ventricular) but who were in sinus rhythm on the ECG at the time of randomization were included.
# The baseline characteristics of the two groups were compared using student t-test for continuous variables and chi-square test for categorical variables. The incidence of AF between the two groups was compared with the chi-square test. Time to the first occurrence of AF during the follow-up was analyzed with Kaplan-Meier curves and compared with the log-rank test. To analyze the effect of enalapril on development of AF, a Cox regression analysis was used to take into account the effect of potential confounding baseline variables (age, sex, NYHA class, history of supraventricular or ventricular arrhythmia, ischemic etiology, diabetes and ejection fraction) and time-dependent variables (systolic blood pressure, diastolic blood pressure, pulse pressure, serum potassium and drug therapy). Cox proportional-hazard models were performed for each variable with treatment (enalapril) forced in all models. Variables with a p-value≦0.2 were included in a multivariate Cox proportional hazard model.
# Subgroup analysis was conducted with chi-square test. Preliminary assumptions were verified prior to all analysis. A p-value≦0.05 was considered statistically significant. […]
# [3] = test system: animals with HF induced by rapid ventricular pacing; conditions: given at the onset of pacing, animals followed for 5 weeks; cited from earlier work
# [4] = test system: patients with persistent AF; conditions: started 3 weeks before electrical cardioversion and combined with amiodarone; cited from earlier work
# [5] = test system: patients shortly after an acute myocardial infarction with depressed LV function; conditions: trandolapril versus placebo, 2-4 years of follow-up in TRACE; cited from earlier work
# [6] = patients with AF in enalapril group, n = 10
smiles,measurement,setting,value
CCOc1nc2cccc(C(=O)O)c2n1Cc1ccc(-c2ccccc2-c2nnn[nH]2)cc1 [candesartan],shortening of the atrial refractory period during rapid atrial pacing,[1],prevented
C[C@H](CS)C(=O)N1CCC[C@H]1C(=O)O [captopril],shortening of the atrial refractory period during rapid atrial pacing,[1],prevented
CCOC(=O)[C@H](CCc1ccccc1)N[C@@H](C)C(=O)N1CCC[C@H]1C(=O)O [enalapril],patients presenting ≥1 episode of AF,"[2]; 2.9 years of follow-up, enalapril group n = 186, 5-20 mg/day, placebo 45",10 patients
same,patients presenting ≥1 episode of AF (percentage),"[2]; 2.9 years of follow-up, enalapril group n = 186, placebo 24%, p<0.001",5.4%
same,probability of remaining in sinus rhythm during follow-up,"[2]; Kaplan-Meier, enalapril versus placebo, p<0.0001, FIG. 1",significantly higher
same,"Hazard ratio for incidence of AF, Cox multivariate analysis","[2]; allocation to enalapril, 95% CI 0.11-0.44, p<0.0001",0.22
same,risk of developing AF in patients with LV dysfunction,[2]; chronic ACEi therapy with enalapril,markedly reduces
same,absolute risk reduction of AF,"[2]; enalapril versus placebo, 2.9 years of follow-up",18.6%
same,"patients developing AF (percentage), patients with a history of supraventricular arrhythmia excluded","[2]; n=21 excluded, placebo 23%, p<0.0001",4.5%
same,"patients developing AF, patients with a history of supraventricular arrhythmia excluded","[2]; n=21 excluded, placebo 40 patients",8 patients
same,AF Detection: 12-leads ECG (number),[2]; [6],10
same,AF Detection: 12-leads ECG (percentage),[2]; [6],100%
same,AF Detection: Holter monitoring (number),[2]; [6],0 (0%)
same,AF Detection: Holter monitoring (percentage),[2]; [6],0 (0%)
same,AF Requiring: electrical cardioversion (number),[2]; [6],1
same,AF Requiring: electrical cardioversion (percentage),[2]; [6],10%
same,AF Requiring: hospitalization (number),[2]; [6],8
same,AF Requiring: hospitalization (percentage),[2]; [6],80%
same,Paroxysmal AF (number),[2]; [6],8
same,Paroxysmal AF (percentage),[2]; [6],80%
same,Persistent AF (number),[2]; [6],2
same,Persistent AF (percentage),[2]; [6],20%
same,"patients developing AF, SOLVD prevention arm","[2]; prevention arm (251 patients), placebo 31 patients",4 patients
same,"patients developing AF (percentage), SOLVD prevention arm","[2]; prevention arm, placebo 24.6%, p<0.0001",3.2%
same,patients with CHF needed to be treated to prevent one episode of AF,[2]; treated for 2.9 years,5 patients
same,"patients developing AF, SOLVD treatment arm","[2]; treatment arm (123 patients), placebo 14",6 patients
same,"patients developing AF (percentage), SOLVD treatment arm","[2]; treatment arm, placebo 22.6%, P=0.055",9.8%
same,atrial fibrosis,[3],significant reduction
same,atrial structural changes in HF induced by rapid ventricular pacing,[3],attenuated
same,vulnerability of the animals to AF,[3],decreased vulnerability
CCCCC1=NC2(CCCC2)C(=O)N1Cc1ccc(-c2ccccc2-c2nnn[nH]2)cc1 [irbesartan],effect on AF recurrence,[4],beneficial effect
CCOC(=O)[C@H](CCc1ccccc1)N[C@@H](C)C(=O)N1[C@H](C(=O)O)C[C@H]2CCCC[C@@H]21 [trandolapril],absolute risk reduction on the incidence of AF,[5],2.5%

# — patent publication US20040255959A1, “Method and compounds to decrease the incidence of atrial fibrillation (AF) in patients with left ventricular dysfunction” (priority 2003, published 2004)
